# Assay results published in US9260429B2, “Pyrido[3,4-B]indoles and methods of use” (Medivation Technologies, Inc., priority 2008, dated 2016).
# Where two headings read alike, the source gives them in different places.
# Experiments:
# [1] = target: T1, human recombinant dopamine D2L receptor (Homo sapiens, UniProt P14416); assay: Dopamine D2L radioligand binding ([3H]Spiperone)
# T1 construct: expressed in transfected cells; host or cells: CHO cells
# Outline: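 CHO-expressed receptor in 50 mM Tris-HCl pH 7.4 with ascorbic acid, 0.001% BSA, 150 mM NaCl; 0.16 nM [3H]spiperone, 120 min at 25 °C; nonspecific binding with haloperidol.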
# [2] = target: T2, human recombinant serotonin (5-Hydroxytryptamine) 5-HT6 receptor (Homo sapiens, UniProt P50406); assay: Serotonin 5-HT6 radioligand binding ([3H]LSD)
# T2 construct: expressed in transfected cells; host or cells: human HeLa cells
# T2 sequence (P50406 whole entry): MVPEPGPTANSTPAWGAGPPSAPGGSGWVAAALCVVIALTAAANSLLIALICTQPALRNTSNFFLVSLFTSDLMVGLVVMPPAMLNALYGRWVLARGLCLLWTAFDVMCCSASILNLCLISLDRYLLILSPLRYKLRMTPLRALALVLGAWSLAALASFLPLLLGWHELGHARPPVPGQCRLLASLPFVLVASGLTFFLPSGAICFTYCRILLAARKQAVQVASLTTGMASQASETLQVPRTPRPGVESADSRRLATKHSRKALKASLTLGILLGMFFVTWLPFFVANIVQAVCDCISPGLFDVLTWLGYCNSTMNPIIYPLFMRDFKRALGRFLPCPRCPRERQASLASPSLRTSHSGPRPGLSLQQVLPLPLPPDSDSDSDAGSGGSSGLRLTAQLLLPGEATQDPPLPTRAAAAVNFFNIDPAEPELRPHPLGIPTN
# Outline: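 Human 5-HT6 receptor expressed in HeLa cells, in Tris-HCl pH 7.4 with 150 mM NaCl, ascorbic acid and BSA. Compounds at 1 μM or lower (1% DMSO) incubated 120 min at 37° C with 1.5 nM [3H]LSD. Non-specific binding defined with serotonin; filter counting gives % inhibition of specific binding.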
# [3] = target: T3, human recombinant serotonin (5-Hydroxytryptamine) 5-HT2C receptor (Homo sapiens, UniProt P28335); assay: Serotonin 5-HT2C radioligand binding ([3H]Mesulergine)
# T3 construct: expressed in transfected cells; host or cells: CHO-K1 cells
# T3 sequence (P28335 33-458): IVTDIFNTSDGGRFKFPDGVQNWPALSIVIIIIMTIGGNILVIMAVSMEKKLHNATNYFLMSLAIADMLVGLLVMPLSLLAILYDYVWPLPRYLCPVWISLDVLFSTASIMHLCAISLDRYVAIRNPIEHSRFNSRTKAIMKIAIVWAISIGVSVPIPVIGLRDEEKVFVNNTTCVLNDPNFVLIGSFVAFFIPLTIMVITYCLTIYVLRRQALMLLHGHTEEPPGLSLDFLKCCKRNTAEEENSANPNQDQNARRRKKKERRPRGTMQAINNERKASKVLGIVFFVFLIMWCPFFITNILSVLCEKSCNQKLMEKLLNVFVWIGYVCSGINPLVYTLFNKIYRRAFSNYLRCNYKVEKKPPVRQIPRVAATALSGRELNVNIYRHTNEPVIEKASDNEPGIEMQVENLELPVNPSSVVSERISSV
# Method: Compounds of the invention were incubated with 1 nM [^3H]Mesulergine for 60 minutes at 25° C. Non-specific binding was estimated in the presence of 1 μM Mianserin. Receptor proteins were filtered and washed, the filters were then counted to determine [^3H]Mesulergine specifically bound. […] Biochemical assay results are presented as the percent inhibition of specific binding in Table 5.
# [4] = target: T4, human recombinant histamine H1 receptor (Homo sapiens, UniProt P35367); assay: Histamine H1 radioligand binding ([3H]Pyrilamine)
# T4 construct: expressed in transfected cells; host or cells: CHO cells
# T4 sequence (P35367 whole entry): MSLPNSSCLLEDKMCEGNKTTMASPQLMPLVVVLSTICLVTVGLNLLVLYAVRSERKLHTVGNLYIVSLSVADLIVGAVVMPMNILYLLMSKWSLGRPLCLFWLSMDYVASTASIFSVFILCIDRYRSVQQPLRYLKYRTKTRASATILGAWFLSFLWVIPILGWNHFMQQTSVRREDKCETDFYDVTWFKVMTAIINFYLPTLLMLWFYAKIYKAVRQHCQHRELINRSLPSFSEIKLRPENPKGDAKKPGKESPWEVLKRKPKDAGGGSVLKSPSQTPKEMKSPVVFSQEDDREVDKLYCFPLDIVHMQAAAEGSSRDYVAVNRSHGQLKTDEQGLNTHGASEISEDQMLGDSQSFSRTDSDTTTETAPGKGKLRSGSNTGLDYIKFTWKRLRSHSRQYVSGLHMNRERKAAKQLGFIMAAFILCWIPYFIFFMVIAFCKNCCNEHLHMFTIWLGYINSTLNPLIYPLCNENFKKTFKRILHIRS
# Outline: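 Binding to the human recombinant histamine H1 receptor, expressed in CHO cells, was measured in a modified Tris-HCl buffer (50 mM Tris-HCl, pH 7.4, 2 mM MgCl2, 100 mM NaCl, 250 mM Sucrose). Compounds were incubated with 1.2 nM [3H]Pyrilamine for 180 minutes at 25° C, with 1 μM pyrilamine defining non-specific binding. After filtration and washing, filter counts gave percent inhibition of specific binding.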
# [5] = 2 h, 1 μM ligand conc., read-out: Percent Inhibition of ligand binding Dopamine (1 μM ligand conc.) D2L
# [6] = 2 h, read-out: Percent Inhibition of ligand binding Serotonin (1 μM ligand concentration) 5-HT6
# [7] = 1 h, read-out: Percent Inhibition of ligand binding Serotonin (1 μM ligand concentration) 5-HT2C
# [8] = 1 μM, read-out: Binding data (Percentage Inhibition) Histamine Binding (1 μM) H1
# T1 sequence (P14416 whole entry): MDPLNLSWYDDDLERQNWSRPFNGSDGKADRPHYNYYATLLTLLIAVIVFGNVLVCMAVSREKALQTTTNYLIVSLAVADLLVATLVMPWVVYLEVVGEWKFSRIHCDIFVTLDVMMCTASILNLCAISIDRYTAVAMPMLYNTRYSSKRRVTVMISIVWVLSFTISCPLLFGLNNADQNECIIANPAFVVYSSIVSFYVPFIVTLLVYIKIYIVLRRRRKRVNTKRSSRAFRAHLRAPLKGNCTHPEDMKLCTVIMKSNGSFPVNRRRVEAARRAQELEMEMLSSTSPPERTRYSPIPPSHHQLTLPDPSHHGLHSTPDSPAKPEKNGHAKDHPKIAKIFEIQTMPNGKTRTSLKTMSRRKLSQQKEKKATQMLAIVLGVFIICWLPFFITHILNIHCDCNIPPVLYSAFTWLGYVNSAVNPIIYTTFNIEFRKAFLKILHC
smiles,measurement,setting,value
C/C(=C\n1c2c(c3cc(C)ccc31)CCN(C)C2C)c1ccccc1F (stereo not shown) [Compound 166],inhibition at 1 µM,[1]; [5],21%
same,inhibition at 1 µM,"[1]; compound concentration 1 μM, read-out: Percentage inhibition of ligand binding to D2L receptor",21%
same,inhibition at 3 µM,"[1]; compound concentration 3 μM, read-out: Percentage inhibition of ligand binding to D2L receptor",12%
same,inhibition at 10 µM,"[1]; compound concentration 10 μM, read-out: Percentage inhibition of ligand binding to D2L receptor",50%
same,inhibition at 1 µM,[2]; [6],95%
same,inhibition at 0.01 µM,"[2]; compound concentration 10 nM, read-out: Percentage inhibition of ligand binding to 5-HT6 receptor",13%
same,inhibition at 0.03 µM,"[2]; compound concentration 0.03 μM, read-out: Percentage inhibition of ligand binding to 5-HT6 receptor",16%
same,inhibition at 0.1 µM,"[2]; compound concentration 0.1 μM, read-out: Percentage inhibition of ligand binding to 5-HT6 receptor",38%
same,inhibition at 0.3 µM,"[2]; compound concentration 0.3 μM, read-out: Percentage inhibition of ligand binding to 5-HT6 receptor",55%
same,inhibition at 1 µM,"[2]; compound concentration 1 μM, read-out: Percentage inhibition of ligand binding to 5-HT6 receptor",95%
same,inhibition at 1 µM,[3]; [7],96%
same,inhibition at 0.01 µM,"[3]; compound concentration 10 nM, read-out: Percentage inhibition of ligand binding to 5-HT2C receptor",33%
same,inhibition at 0.03 µM,"[3]; compound concentration 0.03 μM, read-out: Percentage inhibition of ligand binding to 5-HT2C receptor",62%
same,inhibition at 0.1 µM,"[3]; compound concentration 0.1 μM, read-out: Percentage inhibition of ligand binding to 5-HT2C receptor",87%
same,inhibition at 0.3 µM,"[3]; compound concentration 0.3 μM, read-out: Percentage inhibition of ligand binding to 5-HT2C receptor",93%
same,inhibition at 1 µM,"[3]; compound concentration 1 μM, read-out: Percentage inhibition of ligand binding to 5-HT2C receptor",96%
same,inhibition at 1 µM,[4]; [8],79%
same,inhibition at 0.3 µM,"[4]; compound concentration 0.3 μM, read-out: Percentage inhibition of ligand binding to H1 receptor",23%
same,inhibition at 1 µM,"[4]; compound concentration 1 μM, read-out: Percentage inhibition of ligand binding to H1 receptor",79%
same,inhibition at 3 µM,"[4]; compound concentration 3 μM, read-out: Percentage inhibition of ligand binding to H1 receptor",77%
C/C(=C/n1c2c(c3cc(Cl)ccc31)CCN(C)C2C)c1ccccc1F (stereo not shown) [Compound 167],inhibition at 1 µM,[1]; [5],22%
same,inhibition at 1 µM,[2]; [6],55%
same,inhibition at 1 µM,[3]; [7],95%
same,inhibition at 1 µM,[4]; [8],64%
C/C(=C\n1c2c(c3cc(Cl)ccc31)CCN(C)C2C)c1ccccc1F (stereo not shown) [Compound 168],inhibition at 1 µM,[1]; [5],9%
same,inhibition at 1 µM,[2]; [6],71%
same,inhibition at 1 µM,[3]; [7],96%
same,inhibition at 1 µM,[4]; [8],85%
